Laboratory results: ChEMBL document CHEMBL3885861, “Open TG-GATES”

Species on record: Rattus norvegicus
Assay: Open TG-GATES - Regimen: Daily Repeat
Type: toxicity, organism-based, Sprague-Dawley
Set-up: regimen Daily Repeat, gender Male, age 6 weeks
Details: in vivo, po, 20 mg/kg, route gavage, dose level High; for APTT / Bas / Eos / Fbg / Hb / Lym / MCH / MCHC / MCV / Mono / Neu / PT / Plat / RBC / Ret / WBC: tissue Blood; for KIDNEY_L / KIDNEY_R / KIDNEY_TOTAL: tissue Kidney; for LIVER: tissue Liver; for ALP / ALT / AST / BUN / CRE / Ca / Cl / DBIL / GLC / IP / K / LDH / Na / PL / RALB / TBIL / TC / TG / TP / gamma-GTP: tissue Plasma

OCCN1CCN(CCCN2c3ccccc3Sc3ccc(C(F)(F)F)cc32)CC1 [FLUPHENAZINE]
TERMINAL_BW (72 h, time 3 day): 168.5 g
APTT (72 h, time 3 day): 13.2 s
Bas (72 h, time 3 day): 0%
Eos (72 h, time 3 day): 1.2%
Fbg (72 h, time 3 day): 176.8 mg/dL
Hb (72 h, time 3 day): 16 g/dL
Lym (72 h, time 3 day): 84.6%
MCH (72 h, time 3 day): 21.1 pg
MCHC (72 h, time 3 day): 33.1%
MCV (72 h, time 3 day): 63.6 fL
Mono (72 h, time 3 day): 5.2%
Neu (72 h, time 3 day): 9.2%
PT (72 h, time 3 day): 12.7 s
Plat (72 h, time 3 day): 131.6 x10_4/uL
RBC (72 h, time 3 day): 756.8 x10_4/ul
Ret (72 h, time 3 day): 1.2%
WBC (72 h, time 3 day): 83.2 x10_2/uL
KIDNEY_L (72 h, time 3 day): 0.9 g
KIDNEY_R (72 h, time 3 day): 0.9 g
KIDNEY_TOTAL (72 h, time 3 day): 1.7 g
LIVER (72 h, time 3 day): 7.4 g
ALP (72 h, time 3 day): 538 IU/L
ALT (72 h, time 3 day): 28 IU/L
AST (72 h, time 3 day): 76.2 IU/L
BUN (72 h, time 3 day): 23.4 mg/dL
CRE (72 h, time 3 day): 0.6 mg/dL
Ca (72 h, time 3 day): 10.1 mg/dL
Cl (72 h, time 3 day): 108.4 meq/L
DBIL (72 h, time 3 day): 0.036 mg/dL
GLC (72 h, time 3 day): 180.4 mg/dL
IP (72 h, time 3 day): 7 mg/dL
K (72 h, time 3 day): 4.2 meq/L
LDH (72 h, time 3 day): 189 IU/L
Na (72 h, time 3 day): 140 meq/L
PL (72 h, time 3 day): 128 mg/dL
RALB (72 h, time 3 day): 4.2 g/dL
TBIL (72 h, time 3 day): 0.3 mg/dL
TC (72 h, time 3 day): 74.6 mg/dL
TG (72 h, time 3 day): 48.4 mg/dL
TP (72 h, time 3 day): 5.8 g/dL
gamma-GTP (72 h, time 3 day): 1 IU/L
TERMINAL_BW ([…], time 7 day): 190 g
TERMINAL_BW ([…], time 14 day): 258.2 g
TERMINAL_BW ([…], time 28 day): 303.2 g
APTT ([…], time 7 day): 15.9 s
Bas ([…], time 7 day): 0%
Eos ([…], time 7 day): 0.4%
Fbg ([…], time 7 day): 204.6 mg/dL
Hb ([…], time 7 day): 15.5 g/dL
Lym ([…], time 7 day): 86.4%
MCH ([…], time 7 day): 20.9 pg
MCHC ([…], time 7 day): 33.8%
MCV ([…], time 7 day): 61.7 fL
Mono ([…], time 7 day): 4.8%
Neu ([…], time 7 day): 8.4%
PT ([…], time 7 day): 12.6 s
Plat ([…], time 7 day): 95.7 x10_4/uL
RBC ([…], time 7 day): 745.2 x10_4/ul
Ret ([…], time 7 day): 2.3%
WBC ([…], time 7 day): 93.7 x10_2/uL
APTT ([…], time 14 day): 16.1 s
Bas ([…], time 14 day): 0%
Eos ([…], time 14 day): 0.8%
Fbg ([…], time 14 day): 214.5 mg/dL
Hb ([…], time 14 day): 14.8 g/dL
Lym ([…], time 14 day): 80.2%
MCH ([…], time 14 day): 20.5 pg
MCHC ([…], time 14 day): 33.3%
MCV ([…], time 14 day): 61.6 fL
Mono ([…], time 14 day): 6.2%
Neu ([…], time 14 day): 13%
PT ([…], time 14 day): 12.3 s
Plat ([…], time 14 day): 95.6 x10_4/uL
RBC ([…], time 14 day): 724 x10_4/ul
Ret ([…], time 14 day): 3.9%
WBC ([…], time 14 day): 124.5 x10_2/uL
APTT ([…], time 28 day): 16.6 s
Bas ([…], time 28 day): 0%
Eos ([…], time 28 day): 0.8%
Fbg ([…], time 28 day): 206 mg/dL
Hb ([…], time 28 day): 15.6 g/dL
Lym ([…], time 28 day): 84.2%
MCH ([…], time 28 day): 19.4 pg
MCHC ([…], time 28 day): 33.7%
MCV ([…], time 28 day): 57.7 fL
Mono ([…], time 28 day): 4%
Neu ([…], time 28 day): 11%
PT ([…], time 28 day): 12.3 s
Plat ([…], time 28 day): 73.1 x10_4/uL
RBC ([…], time 28 day): 804 x10_4/ul
Ret ([…], time 28 day): 2.5%
WBC ([…], time 28 day): 157 x10_2/uL
KIDNEY_L ([…], time 7 day): 0.9 g
KIDNEY_R ([…], time 7 day): 0.9 g
KIDNEY_TOTAL ([…], time 7 day): 1.8 g
KIDNEY_L ([…], time 14 day): 1 g
KIDNEY_R ([…], time 14 day): 1 g
KIDNEY_TOTAL ([…], time 14 day): 2.1 g
KIDNEY_L ([…], time 28 day): 1.1 g
KIDNEY_R ([…], time 28 day): 1.2 g
KIDNEY_TOTAL ([…], time 28 day): 2.3 g
LIVER ([…], time 7 day): 9 g
LIVER ([…], time 14 day): 11.9 g
LIVER ([…], time 28 day): 11.9 g
ALP ([…], time 7 day): 653.8 IU/L
ALT ([…], time 7 day): 44.4 IU/L
AST ([…], time 7 day): 79.6 IU/L
BUN ([…], time 7 day): 28.8 mg/dL
CRE ([…], time 7 day): 0.5 mg/dL
Ca ([…], time 7 day): 10.3 mg/dL
Cl ([…], time 7 day): 105.4 meq/L
DBIL ([…], time 7 day): 0.01 mg/dL
GLC ([…], time 7 day): 158.2 mg/dL
IP ([…], time 7 day): 7 mg/dL
K ([…], time 7 day): 4.4 meq/L
LDH ([…], time 7 day): 195.8 IU/L
Na ([…], time 7 day): 140.4 meq/L
PL ([…], time 7 day): 184.6 mg/dL
RALB ([…], time 7 day): 4.2 g/dL
TBIL ([…], time 7 day): 0.2 mg/dL
TC ([…], time 7 day): 101.2 mg/dL
TG ([…], time 7 day): 98.6 mg/dL
TP ([…], time 7 day): 6.2 g/dL
gamma-GTP ([…], time 7 day): 1 IU/L
ALP ([…], time 14 day): 872 IU/L
ALT ([…], time 14 day): 44.8 IU/L
AST ([…], time 14 day): 81.5 IU/L
BUN ([…], time 14 day): 19.8 mg/dL
CRE ([…], time 14 day): 0.6 mg/dL
Ca ([…], time 14 day): 10.8 mg/dL
Cl ([…], time 14 day): 103.2 meq/L
DBIL ([…], time 14 day): 0.0025 mg/dL
GLC ([…], time 14 day): 182.8 mg/dL
IP ([…], time 14 day): 8.7 mg/dL
K ([…], time 14 day): 4.2 meq/L
LDH ([…], time 14 day): 148 IU/L
Na ([…], time 14 day): 137.2 meq/L
PL ([…], time 14 day): 141 mg/dL
RALB ([…], time 14 day): 4.2 g/dL
TBIL ([…], time 14 day): 0.2 mg/dL
TC ([…], time 14 day): 66.5 mg/dL
TG ([…], time 14 day): 86.8 mg/dL
TP ([…], time 14 day): 6.2 g/dL
gamma-GTP ([…], time 14 day): 2 IU/L
ALP ([…], time 28 day): 676.6 IU/L
ALT ([…], time 28 day): 31.6 IU/L
AST ([…], time 28 day): 80.2 IU/L
BUN ([…], time 28 day): 24.2 mg/dL
CRE ([…], time 28 day): 0.7 mg/dL
Ca ([…], time 28 day): 10.4 mg/dL
Cl ([…], time 28 day): 111.2 meq/L
DBIL ([…], time 28 day): 0.022 mg/dL
GLC ([…], time 28 day): 170.8 mg/dL
IP ([…], time 28 day): 6.2 mg/dL
K ([…], time 28 day): 4.4 meq/L
LDH ([…], time 28 day): 145.6 IU/L
Na ([…], time 28 day): 142 meq/L
PL ([…], time 28 day): 114.4 mg/dL
RALB ([…], time 28 day): 4.2 g/dL
TBIL ([…], time 28 day): 0.3 mg/dL
TC ([…], time 28 day): 57.8 mg/dL
TG ([…], time 28 day): 35.4 mg/dL
TP ([…], time 28 day): 6.4 g/dL
gamma-GTP ([…], time 28 day): 1.4 IU/L
